Literature values in publication PMC9686322 (Frontiers in Neurology, 2022).

What was measured:
[1] = parameters: method as in PMID 29847694
[2] = parameters: method as in PMID 15956161, PMID 10626097, PMID 21080186

Plasma half-life [1]: 1.5 to 2.5 h
SMILES: N[C@@H](Cc1ccc(O)c(O)c1)C(=O)O [levodopa]
Threshold plasma concentration to achieve sustained relief of PD symptoms [2]: about 1,000 ng/ml
